Source: patent US7973162B2, “Modulators of muscarinic receptors” (Vertex Pharmaceuticals Incorporated, priority 2007, dated 2011)

Target: T1, M4 muscarinic receptor (Homo sapiens, UniProt P08173)
T1 construct: expressed in transfected cells; host or cells: CHO (M4-CHO)
T1 sequence (P08173 1-479): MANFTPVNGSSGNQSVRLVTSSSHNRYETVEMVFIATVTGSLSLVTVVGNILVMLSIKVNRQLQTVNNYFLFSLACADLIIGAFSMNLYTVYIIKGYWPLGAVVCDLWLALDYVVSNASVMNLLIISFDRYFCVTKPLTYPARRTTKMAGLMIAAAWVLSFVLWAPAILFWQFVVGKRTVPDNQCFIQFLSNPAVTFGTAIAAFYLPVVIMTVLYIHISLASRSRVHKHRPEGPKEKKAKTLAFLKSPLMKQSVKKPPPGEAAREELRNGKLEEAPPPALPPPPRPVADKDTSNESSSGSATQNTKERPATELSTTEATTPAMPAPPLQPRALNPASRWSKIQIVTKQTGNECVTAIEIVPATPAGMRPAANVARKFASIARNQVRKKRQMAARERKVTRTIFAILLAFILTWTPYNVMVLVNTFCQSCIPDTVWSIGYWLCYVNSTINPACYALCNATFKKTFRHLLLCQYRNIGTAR
Experiment: Functional mobilization of intracellular calcium (FLIPR), M4-CHO cells
Assay type: cell-based
Conditions: 100% efficacy = maximum response obtained with the Carbachol control
Procedure: (§1) Functional Mobilization of Intracellular Calcium to Determine Muscarinic Receptor Activity:
(§2) CHO cells expressing muscarinic receptors (M1 to M5) are grown as monolayers in tissue culture flasks at 37° C. in a humidified atmosphere containing 5% CO2 and passaged every 3-5 days. The growth media is Dulbecco's modified eagles medium (DMEM, Gibco Cat# 12430-054), containing 25 mM Hepes and supplemented with Fetal Bovine Serum (Hyclone, cat #SH30071.03), 0.1 mM of MEM non-essential amino acids (GIBCO, Cat #11140-050), 1 mM MEM Sodium Pyruvate (GIBCO Cat #11360-070) and 100 units/ml of Penicillin G and 100 μg/ml of Streptomycin (GIBCO Cat #15140-122). The recombinant muscarinic receptor cell lines are grown under antibiotic pressure with media containing 25 μg/ml zeocin and 500 μg/ml G418 (M1-CHO), 4 μg/ml puromycin, 50 μg/ml zeocin and 2.5 μg/ml blasticidin (M2 and M4-CHO) or 50 μg/ml zeocin and 4 μg/ml puromycin (M3 and M5-CHO).
(§3) Cells are harvested at 80-90% confluence using Versene (GIBCO Cat #15040-066), collected by centrifugation and seeded 18-24 hrs prior to running the calcium assay at a density of 5,000-10,000 cells/well in […], clear-bottomed 384-well plates (BD Biocoat, poly-D-lysine, Cat#356663). The day of the experiment, the cells are washed with a plate washer (Bioteck Instruments, ELX 405) using bath1 buffer (140-mM NaCl, 4.5-mM KCl, 2-mM CaCl2, 1-mM MgCl2, 10-mM Hepes-Na, 10-mM Glucose, pH 7.4, with NaOH) containing 1 mM Probenecid. Next, the calcium dye Fluo-3 (25 μl/well of Fluo-3 AM at 4 μM, Molecular Probes F-1241, in Bath 1 buffer containing 1 mM Probenecid) is added to the 25 μl of Bath 1 remaining in each well after the plate wash and the dye is loaded at 37° C. in the tissue culture incubator for 60-90 min. The fluorescent dye is removed using the plate washer with Bath 1 containing 1 mM Probenecid, leaving 25 μl/well of this solution after the wash. Alternatively, cells can be loaded with the calcium indicator from Molecular Devices (Calcium 3 Assay Reagents, Cat #R7181) adding 5 μl of a 5× solution dye in Bath 1 containing 1 mM Probenecid (10 ml per dye flask cat #R7182 to generate a solution 20×) to 20 μl of the same buffer. After loading for 60 min, the experiment can be run without having to remove the dye.
(§4) Compounds are prepared at a 2× fold concentration in a 96-well plate (round bottom, Costar Corning cat #3656), by reconstituting the pre-spotted compounds in bath 1 containing 1 mM probenecid. The final concentration DMSO is 0.5%, and the amount of DMSO is normalized across the assay plate. To determine an agonist action of the compounds on muscarinic receptors, the reconstituted compounds are added (25 μl compound/well) to the cell assay plate (containing 25 μl/well) using the multi-channel robotic system of the FLIPR 3 Instrument (Molecular Devices, Sunnyvale, Calif.). To determine a functional inhibitory action of the compounds on muscarinic receptors, the reconstituted compounds are added (25 μl compound/well) to the assay plate and pre-incubated for 15 min prior to adding 25 μl of Carbachol at 3× the EC80 for each muscarinic subtype. Alternatively, the compounds can be co-applied simultaneously with the agonist. In both assay modes, the fluorescence is recorded for 60 sec (excitation wavelength is […] and emission wavelength 540 nm) using the FLIPR 3 instrument.
(§5) The potency, efficacy and selectivity of the muscarinic compounds were evaluated by screening the compound activity across the whole family (M1 to M5 cells). Compounds were also screened for activity on other proteins such as other GPCRs and ion channels to determine selectivity on M4 receptors.
(§6) Examples of activities and efficacies of the muscarinic compounds of formulae (I, Ia, and Ib) on modulating M1 and M4 receptors are shown below in Table 3. […]

Row | SMILES | Emax [%]
1 | O=C1CC2CC3(CCN(CC4CCCCC4)CC3)c3ccccc3C2O1 (centres unmarked) [Compound 18] | 25 to 100
2 | c1ccc2c(c1)C1OCCC1CC21CCN(C2CCCCC2)CC1 (centres unmarked) [Compound 26] | < 25
3 | c1ccc2c(c1)C1OCCC1CC21CCN(CC2CCCCC2)CC1 (centres unmarked) [Compound 14] | 25 to 100
4 | O=C1C[C@@H]2[C@H](N1)c1ccccc1C21CCN(C[C@H]2C[C@@H]3CC[C@@H]2C3)CC1 [Compound 30] | 25 to 100

Same assay, conditions: CHO cells expressing M4, calcium mobilization

Row | SMILES | EC50 [µM]
5 | O=C1CC2CC3(CCN(CC4CCCCC4)CC3)c3ccccc3C2O1 (centres unmarked) [Compound 18] | < 2
6 | c1ccc2c(c1)C1OCCC1CC21CCN(C2CCCCC2)CC1 (centres unmarked) [Compound 26] | < 2
7 | c1ccc2c(c1)C1OCCC1CC21CCN(CC2CCCCC2)CC1 (centres unmarked) [Compound 14] | < 2
8 | O=C1C[C@@H]2[C@H](N1)c1ccccc1C21CCN(C[C@H]2C[C@@H]3CC[C@@H]2C3)CC1 [Compound 30] | < 2

Target: T2, M3 muscarinic receptor (Homo sapiens, UniProt P20309)
T2 construct: expressed in transfected cells; host or cells: CHO (M3-CHO)
Experiment: Functional mobilization of intracellular calcium (FLIPR), M3-CHO cells
Assay type: cell-based
Conditions: 100% efficacy = maximum response obtained with the Carbachol control
Procedure: as §1, §2, §3, §4, §5, §6

T2 sequence (P20309 whole entry): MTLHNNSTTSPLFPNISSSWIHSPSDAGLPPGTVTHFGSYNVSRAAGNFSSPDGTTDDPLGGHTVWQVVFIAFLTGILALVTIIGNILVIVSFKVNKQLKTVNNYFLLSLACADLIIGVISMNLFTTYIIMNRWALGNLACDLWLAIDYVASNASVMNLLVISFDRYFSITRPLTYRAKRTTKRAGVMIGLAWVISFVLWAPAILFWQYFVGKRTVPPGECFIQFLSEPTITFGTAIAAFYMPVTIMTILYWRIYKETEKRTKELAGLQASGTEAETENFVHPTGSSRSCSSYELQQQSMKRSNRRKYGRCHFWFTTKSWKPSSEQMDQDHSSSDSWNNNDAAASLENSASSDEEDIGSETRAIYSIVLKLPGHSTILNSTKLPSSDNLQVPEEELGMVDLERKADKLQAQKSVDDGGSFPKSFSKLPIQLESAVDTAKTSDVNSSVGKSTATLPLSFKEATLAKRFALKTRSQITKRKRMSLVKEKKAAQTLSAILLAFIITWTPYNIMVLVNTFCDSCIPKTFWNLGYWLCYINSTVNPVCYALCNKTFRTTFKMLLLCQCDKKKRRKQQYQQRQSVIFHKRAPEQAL

Row | SMILES | Emax [%]
9 | O=C1CC2CC3(CCN(CC4CCCCC4)CC3)c3ccccc3C2O1 (centres unmarked) [Compound 18] | < 25
10 | c1ccc2c(c1)C1OCCC1CC21CCN(C2CCCCC2)CC1 (centres unmarked) [Compound 26] | < 25
11 | c1ccc2c(c1)C1OCCC1CC21CCN(CC2CCCCC2)CC1 (centres unmarked) [Compound 14] | < 25
12 | O=C1C[C@@H]2[C@H](N1)c1ccccc1C21CCN(C[C@H]2C[C@@H]3CC[C@@H]2C3)CC1 [Compound 30] | < 25

Same assay, conditions: CHO cells expressing M3, calcium mobilization

Row | SMILES | EC50 [µM]
13 | O=C1CC2CC3(CCN(CC4CCCCC4)CC3)c3ccccc3C2O1 (centres unmarked) [Compound 18] | > 5
14 | c1ccc2c(c1)C1OCCC1CC21CCN(C2CCCCC2)CC1 (centres unmarked) [Compound 26] | > 5
15 | c1ccc2c(c1)C1OCCC1CC21CCN(CC2CCCCC2)CC1 (centres unmarked) [Compound 14] | > 5
16 | O=C1C[C@@H]2[C@H](N1)c1ccccc1C21CCN(C[C@H]2C[C@@H]3CC[C@@H]2C3)CC1 [Compound 30] | > 5

Target: T3, M1 muscarinic receptor (Homo sapiens, UniProt P11229)
T3 construct: expressed in transfected cells; host or cells: CHO (M1-CHO)
T3 sequence (P11229 1-460): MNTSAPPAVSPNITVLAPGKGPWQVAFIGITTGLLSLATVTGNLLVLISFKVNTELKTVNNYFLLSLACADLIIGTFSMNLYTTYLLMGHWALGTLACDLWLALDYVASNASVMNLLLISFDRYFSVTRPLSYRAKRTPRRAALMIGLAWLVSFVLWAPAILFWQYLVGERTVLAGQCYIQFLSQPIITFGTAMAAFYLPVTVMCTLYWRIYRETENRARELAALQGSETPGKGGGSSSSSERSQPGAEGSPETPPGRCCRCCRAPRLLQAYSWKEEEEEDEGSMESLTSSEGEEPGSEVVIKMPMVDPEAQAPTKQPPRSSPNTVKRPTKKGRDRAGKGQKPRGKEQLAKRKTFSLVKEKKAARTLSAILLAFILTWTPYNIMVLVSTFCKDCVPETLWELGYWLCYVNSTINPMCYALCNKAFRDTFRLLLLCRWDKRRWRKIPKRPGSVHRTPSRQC
Experiment: Functional mobilization of intracellular calcium (FLIPR), M1-CHO cells
Assay type: cell-based
Conditions: 100% efficacy = maximum response obtained with the Carbachol control
Procedure: as §1, §2, §3, §4, §5, §6

Row | SMILES | Emax [%]
17 | O=C1CC2CC3(CCN(CC4CCCCC4)CC3)c3ccccc3C2O1 (centres unmarked) [Compound 18] | 25 to 100
18 | c1ccc2c(c1)C1OCCC1CC21CCN(C2CCCCC2)CC1 (centres unmarked) [Compound 26] | 25 to 100
19 | c1ccc2c(c1)C1OCCC1CC21CCN(CC2CCCCC2)CC1 (centres unmarked) [Compound 14] | 25 to 100
20 | O=C1C[C@@H]2[C@H](N1)c1ccccc1C21CCN(C[C@H]2C[C@@H]3CC[C@@H]2C3)CC1 [Compound 30] | 25 to 100

Same assay, conditions: CHO cells expressing M1, calcium mobilization

Row | SMILES | EC50 [µM]
21 | O=C1CC2CC3(CCN(CC4CCCCC4)CC3)c3ccccc3C2O1 (centres unmarked) [Compound 18] | < 2
22 | c1ccc2c(c1)C1OCCC1CC21CCN(C2CCCCC2)CC1 (centres unmarked) [Compound 26] | > 5
23 | c1ccc2c(c1)C1OCCC1CC21CCN(CC2CCCCC2)CC1 (centres unmarked) [Compound 14] | > 5
24 | O=C1C[C@@H]2[C@H](N1)c1ccccc1C21CCN(C[C@H]2C[C@@H]3CC[C@@H]2C3)CC1 [Compound 30] | < 2

Target: T4, M2 muscarinic receptor (Homo sapiens, UniProt P08172)
T4 construct: expressed in transfected cells; host or cells: CHO (M2-CHO)
T4 sequence (P08172 1-466): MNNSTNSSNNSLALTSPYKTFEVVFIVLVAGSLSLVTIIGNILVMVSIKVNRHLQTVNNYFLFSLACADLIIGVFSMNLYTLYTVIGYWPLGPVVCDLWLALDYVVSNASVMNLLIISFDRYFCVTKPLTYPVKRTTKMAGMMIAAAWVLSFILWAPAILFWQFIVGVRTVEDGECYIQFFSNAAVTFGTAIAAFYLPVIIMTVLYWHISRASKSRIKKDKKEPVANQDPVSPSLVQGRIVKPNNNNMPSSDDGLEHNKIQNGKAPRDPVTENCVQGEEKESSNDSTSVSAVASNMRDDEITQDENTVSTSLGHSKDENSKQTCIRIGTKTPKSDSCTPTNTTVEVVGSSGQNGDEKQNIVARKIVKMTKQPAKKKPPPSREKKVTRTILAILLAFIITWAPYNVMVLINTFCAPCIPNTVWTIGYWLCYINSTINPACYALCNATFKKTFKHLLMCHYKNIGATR
Experiment: Functional mobilization of intracellular calcium (FLIPR), M2-CHO cells
Assay type: cell-based
Conditions: 100% efficacy = maximum response obtained with the Carbachol control
Procedure: as §1, §2, §3, §4, §5, §6

Row | SMILES | Emax [%]
25 | O=C1CC2CC3(CCN(CC4CCCCC4)CC3)c3ccccc3C2O1 (centres unmarked) [Compound 18] | 25 to 100
26 | c1ccc2c(c1)C1OCCC1CC21CCN(C2CCCCC2)CC1 (centres unmarked) [Compound 26] | < 25
27 | c1ccc2c(c1)C1OCCC1CC21CCN(CC2CCCCC2)CC1 (centres unmarked) [Compound 14] | < 25
28 | O=C1C[C@@H]2[C@H](N1)c1ccccc1C21CCN(C[C@H]2C[C@@H]3CC[C@@H]2C3)CC1 [Compound 30] | 25 to 100

Same assay, conditions: CHO cells expressing M2, calcium mobilization

Row | SMILES | EC50 [µM]
29 | O=C1CC2CC3(CCN(CC4CCCCC4)CC3)c3ccccc3C2O1 (centres unmarked) [Compound 18] | > 5
30 | c1ccc2c(c1)C1OCCC1CC21CCN(C2CCCCC2)CC1 (centres unmarked) [Compound 26] | > 5
31 | c1ccc2c(c1)C1OCCC1CC21CCN(CC2CCCCC2)CC1 (centres unmarked) [Compound 14] | > 5
32 | O=C1C[C@@H]2[C@H](N1)c1ccccc1C21CCN(C[C@H]2C[C@@H]3CC[C@@H]2C3)CC1 [Compound 30] | 2 to 5
